Measurements as given in ChEMBL document CHEMBL1201862, “PubChem BioAssay data set” (2004).
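Five compound concentrations were applied to cells in 96-well plates for 48 hours; endpoints were derived by simple linear interpolation of the resulting dose-response curve. GI50 = concentration required for 50% inhibition of growth.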 Active and inactive are the calls of the source. Rule as the data show it: active = GI50 up to about 1.1 µM and inactive = higher.

Columns and labels:
Assay in all cases: NCI tumour cell line growth inhibition, 48 h
[1] = system: 786-0
[2] = system: A549
[3] = system: ACHN
[4] = system: CAKI-1
[5] = system: COLO 205
[6] = system: DLD-1
[7] = system: DMS-114
[8] = system: DMS-273
[9] = system: EKVX
[10] = system: HCC 2998
[11] = system: HL-60
[12] = system: HOP-18
[13] = system: HOP-62
[14] = system: HOP-92
[15] = system: HT-29
[16] = system: KM-20L2
[17] = system: KM12
[18] = system: LOX IMVI
[19] = system: LXFL 529
[20] = system: M14
[21] = system: M19-MEL
[22] = system: Malme-3M
[23] = system: NCI-H226
[24] = system: NCI-H23
[25] = system: NCI-H460
[26] = system: NCI-H522
[27] = system: OVCAR-3
[28] = system: OVCAR-4
[29] = system: OVCAR-5
[30] = system: OVCAR-8
[31] = system: RXF 393
[32] = system: SF-268
[33] = system: SF-295
[34] = system: SF-539
[35] = system: SK-MEL-28
[36] = system: SK-MEL-2
[37] = system: SN12C
[38] = system: SNB-19
[39] = system: SNB-75
[40] = system: SNB-78
[41] = system: SR
[42] = system: SW-620
[43] = system: TK-10
[44] = system: U-251
[45] = system: UACC-257
[46] = system: UO-31
[47] = system: CCRF-CEM
[48] = system: HCT-116
[49] = system: IGROV-1
[50] = system: K562
[51] = system: MOLT-4
[52] = system: SK-MEL-5
[53] = system: SK-OV-3
[54] = system: UACC-62
[55] = system: XF498
[56] = system: A498

Measured: GI50

COC(=O)C1C(/C=C/c2ccoc2)ON2CCC[C@@H]12 (stereo partly drawn)
inactive: [1] > 100 µM | [2] > 100 µM | [3] 67.8 µM | [4] > 100 µM | [5] > 100 µM | [6] > 100 µM | [7] > 100 µM | [8] 36.2 µM | [9] > 100 µM | [10] > 100 µM | [11] > 100 µM | [12] 70.3 µM | [13] > 100 µM | [14] > 100 µM | [15] > 100 µM | [16] > 100 µM | [17] > 100 µM | [18] > 100 µM | [19] > 100 µM | [20] > 100 µM | [21] > 100 µM | [22] 33.6 µM | [23] > 100 µM | [24] > 100 µM | [25] > 100 µM | [26] > 100 µM | [27] > 100 µM | [28] > 100 µM | [29] > 100 µM | [30] > 100 µM | [31] 47.8 µM | [32] > 100 µM | [33] > 100 µM | [34] > 100 µM | [35] > 100 µM | [36] > 100 µM | [37] > 100 µM | [38] > 100 µM | [39] 87.5 µM | [40] > 100 µM | [41] > 100 µM | [42] > 100 µM | [43] > 100 µM | [44] > 100 µM | [45] > 100 µM | [46] > 100 µM

C=CCN1C(=O)NC(=O)/C(=C/c2c3ccccc3cc3ccccc23)C1=O
inactive: [2] 21 µM | [4] 19.5 µM | [47] 26.3 µM | [5] 19.9 µM | [6] 18.9 µM | [7] 19.1 µM | [8] 20.8 µM | [9] 25.5 µM | [10] 14.8 µM | [48] 17.1 µM | [13] 17.3 µM | [14] 20.4 µM | [15] 20.7 µM | [49] > 10 µM | [50] 20.8 µM | [17] 16.2 µM | [18] 27.6 µM | [20] 16.2 µM | [21] 34.4 µM | [51] 17.9 µM | [22] 18.6 µM | [23] 26.3 µM | [24] > 10 µM | [25] 19.1 µM | [26] 20.2 µM | [27] 18.9 µM | [28] 22.2 µM | [29] 20.5 µM | [30] 22.4 µM | [31] 15.3 µM | [32] 24.5 µM | [33] 17.4 µM | [34] 16.7 µM | [35] 22.4 µM | [36] 19.6 µM | [52] > 10 µM | [53] 29.9 µM | [38] 21.8 µM | [39] 21.3 µM | [40] 21.1 µM | [41] 23.9 µM | [42] 35.7 µM | [43] 20 µM | [44] 16.7 µM | [54] 18 µM | [46] 20.6 µM | [55] 21.8 µM

COc1ccc2c(=O)oc3c(OC)cc(CCN(C)C)c4c(=O)oc1c2c34
inactive: [56] 20.5 µM | [47] 1.49 µM | [5] 4.94 µM | [6] 22.8 µM | [7] 12.1 µM | [8] 15.6 µM | [10] 12.4 µM | [12] 14.4 µM | [13] 14.2 µM | [50] 2.56 µM | [16] 14.9 µM | [19] 13.3 µM | [20] 17.4 µM | [21] 14.5 µM | [51] 11.5 µM | [22] 14.5 µM | [23] 17.9 µM | [24] 17.8 µM | [26] 12.5 µM | [27] 16.1 µM | [29] 17.9 µM | [30] 10.4 µM | [32] 12.9 µM | [36] 17.7 µM | [52] 12.3 µM | [37] 13.8 µM | [38] 14.3 µM | [40] 14.3 µM | [44] 14.4 µM | [54] 17.9 µM
